Data reported in ChEMBL document CHEMBL2073816 (J Biol Chem, 2001).

How the values were obtained:
[1] = molecular target: T1, Solute carrier family 22 member 2 (Homo sapiens, UniProt O15244); assay: TP_TRANSPORTER: inhibition of Choline uptake (Choline: 10 uM, NMN: 5000 uM) in Xenopus laevis oocytes; format: functional, cell-based; conditions: oocyte
T1 sequence (O15244 whole entry): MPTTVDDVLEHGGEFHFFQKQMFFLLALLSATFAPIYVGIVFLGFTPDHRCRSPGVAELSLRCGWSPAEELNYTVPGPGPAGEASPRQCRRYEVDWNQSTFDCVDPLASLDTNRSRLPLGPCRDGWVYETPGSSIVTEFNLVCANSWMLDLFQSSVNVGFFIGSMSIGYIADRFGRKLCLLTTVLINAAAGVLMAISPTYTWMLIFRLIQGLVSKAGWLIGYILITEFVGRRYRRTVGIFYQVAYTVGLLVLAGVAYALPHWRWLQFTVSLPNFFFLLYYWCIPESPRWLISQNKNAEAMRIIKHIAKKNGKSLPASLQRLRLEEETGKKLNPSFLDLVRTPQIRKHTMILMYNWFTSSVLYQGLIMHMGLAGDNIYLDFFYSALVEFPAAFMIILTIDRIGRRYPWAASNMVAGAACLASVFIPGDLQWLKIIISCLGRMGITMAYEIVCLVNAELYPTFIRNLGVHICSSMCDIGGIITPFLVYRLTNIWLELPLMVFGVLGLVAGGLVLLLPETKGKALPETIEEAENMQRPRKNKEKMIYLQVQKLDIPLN

[2] = molecular target: T2, Solute carrier family 22 member 1 (Rattus norvegicus, UniProt Q63089); assay: (§1) TP_TRANSPORTER: inhibition of Choline uptake (Choline: 10 uM, Quinine: 200 uM) in Xenopus laevis oocytes; format: functional, cell-based; conditions: oocyte
T2 sequence (Q63089 whole entry): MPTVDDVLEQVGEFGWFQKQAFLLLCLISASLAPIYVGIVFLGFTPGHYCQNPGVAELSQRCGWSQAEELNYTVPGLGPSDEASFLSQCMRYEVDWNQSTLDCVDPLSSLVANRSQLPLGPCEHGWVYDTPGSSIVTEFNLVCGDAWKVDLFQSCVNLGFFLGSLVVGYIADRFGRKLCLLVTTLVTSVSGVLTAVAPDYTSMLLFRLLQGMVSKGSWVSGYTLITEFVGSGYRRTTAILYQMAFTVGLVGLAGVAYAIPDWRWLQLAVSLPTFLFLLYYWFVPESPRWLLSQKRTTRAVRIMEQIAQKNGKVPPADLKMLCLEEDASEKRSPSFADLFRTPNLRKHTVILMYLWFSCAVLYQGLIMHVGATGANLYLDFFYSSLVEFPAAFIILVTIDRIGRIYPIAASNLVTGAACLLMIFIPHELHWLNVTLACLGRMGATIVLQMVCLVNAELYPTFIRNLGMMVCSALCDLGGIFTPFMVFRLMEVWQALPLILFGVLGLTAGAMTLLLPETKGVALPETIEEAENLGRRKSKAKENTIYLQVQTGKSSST

[3] = molecular target: T3, Solute carrier family 22 member 2 (Rattus norvegicus, UniProt Q9R0W2); assay: as §1; format: functional, cell-based; conditions: oocyte
T3 sequence (Q9R0W2 whole entry): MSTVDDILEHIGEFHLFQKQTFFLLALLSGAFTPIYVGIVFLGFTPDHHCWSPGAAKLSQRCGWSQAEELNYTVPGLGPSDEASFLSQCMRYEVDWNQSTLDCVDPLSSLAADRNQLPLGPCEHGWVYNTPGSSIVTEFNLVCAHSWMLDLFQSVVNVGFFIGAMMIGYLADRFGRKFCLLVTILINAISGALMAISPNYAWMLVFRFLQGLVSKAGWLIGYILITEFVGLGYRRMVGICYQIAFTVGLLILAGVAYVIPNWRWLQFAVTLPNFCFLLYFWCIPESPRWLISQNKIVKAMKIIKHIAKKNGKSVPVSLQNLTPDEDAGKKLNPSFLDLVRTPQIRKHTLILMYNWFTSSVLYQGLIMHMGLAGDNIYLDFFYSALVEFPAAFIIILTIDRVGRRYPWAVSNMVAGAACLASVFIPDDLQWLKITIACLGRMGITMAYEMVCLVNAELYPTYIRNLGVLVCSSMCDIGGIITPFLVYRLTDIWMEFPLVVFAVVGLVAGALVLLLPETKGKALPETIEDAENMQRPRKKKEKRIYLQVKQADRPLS

[4] = molecular target: T1, Solute carrier family 22 member 2; assay: TP_TRANSPORTER: inhibition of Choline uptake (Choline: 10 uM, TPeA: 200 uM) in Xenopus laevis oocytes; format: functional, cell-based; conditions: oocyte
[5] = substrate: C[N+](C)(C)CCO; assay: cells, lysate or membranes named

CNC(=O)c1cccnc1 [NICOTINYL METHYLAMIDE]
Activity [1]: inhibitor [+]

C=C[C@H]1C[N@@]2CC[C@H]1C[C@H]2[C@H](O)c1ccnc2ccc(OC)cc12 [QUININE]
Activity [2]: inhibitor [+] | Activity [3]: inhibitor [+]

CCCCC[N+](CCCCC)(CCCCC)CCCCC [TETRAPENTYLAMMONIUM]
Activity [4]: inhibitor [+]

B1: Solute carrier family 22 member 2 (Rattus norvegicus) (protein)
chain: MSTVDDILEHIGEFHLFQKQTFFLLALLSGAFTPIYVGIVFLGFTPDHHCWSPGAAKLSQRCGWSQAEELNYTVPGLGPSDEASFLSQCMRYEVDWNQSTLDCVDPLSSLAADRNQLPLGPCEHGWVYNTPGSSIVTEFNLVCAHSWMLDLFQSVVNVGFFIGAMMIGYLADRFGRKFCLLVTILINAISGALMAISPNYAWMLVFRFLQGLVSKAGWLIGYILITEFVGLGYRRMVGICYQIAFTVGLLILAGVAYVIPNWRWLQFAVTLPNFCFLLYFWCIPESPRWLISQNKIVKAMKIIKHIAKKNGKSVPVSLQNLTPDEDAGKKLNPSFLDLVRTPQIRKHTLILMYNWFTSSVLYQGLIMHMGLAGDNIYLDFFYSALVEFPAAFIIILTIDRVGRRYPWAVSNMVAGAACLASVFIPDDLQWLKITIACLGRMGITMAYEMVCLVNAELYPTYIRNLGVLVCSSMCDIGGIITPFLVYRLTDIWMEFPLVVFAVVGLVAGALVLLLPETKGKALPETIEDAENMQRPRKKKEKRIYLQVKQADRPLS
Km [5]: 441 µM

B2: Solute carrier family 22 member 2 (Homo sapiens) (protein)
chain: MPTTVDDVLEHGGEFHFFQKQMFFLLALLSATFAPIYVGIVFLGFTPDHRCRSPGVAELSLRCGWSPAEELNYTVPGPGPAGEASPRQCRRYEVDWNQSTFDCVDPLASLDTNRSRLPLGPCRDGWVYETPGSSIVTEFNLVCANSWMLDLFQSSVNVGFFIGSMSIGYIADRFGRKLCLLTTVLINAAAGVLMAISPTYTWMLIFRLIQGLVSKAGWLIGYILITEFVGRRYRRTVGIFYQVAYTVGLLVLAGVAYALPHWRWLQFTVSLPNFFFLLYYWCIPESPRWLISQNKNAEAMRIIKHIAKKNGKSLPASLQRLRLEEETGKKLNPSFLDLVRTPQIRKHTMILMYNWFTSSVLYQGLIMHMGLAGDNIYLDFFYSALVEFPAAFMIILTIDRIGRRYPWAASNMVAGAACLASVFIPGDLQWLKIIISCLGRMGITMAYEIVCLVNAELYPTFIRNLGVHICSSMCDIGGIITPFLVYRLTNIWLELPLMVFGVLGLVAGGLVLLLPETKGKALPETIEEAENMQRPRKNKEKMIYLQVQKLDIPLN
Km [5]: 102 µM

B3: Solute carrier family 22 member 1 (Rattus norvegicus) (protein)
chain: MPTVDDVLEQVGEFGWFQKQAFLLLCLISASLAPIYVGIVFLGFTPGHYCQNPGVAELSQRCGWSQAEELNYTVPGLGPSDEASFLSQCMRYEVDWNQSTLDCVDPLSSLVANRSQLPLGPCEHGWVYDTPGSSIVTEFNLVCGDAWKVDLFQSCVNLGFFLGSLVVGYIADRFGRKLCLLVTTLVTSVSGVLTAVAPDYTSMLLFRLLQGMVSKGSWVSGYTLITEFVGSGYRRTTAILYQMAFTVGLVGLAGVAYAIPDWRWLQLAVSLPTFLFLLYYWFVPESPRWLLSQKRTTRAVRIMEQIAQKNGKVPPADLKMLCLEEDASEKRSPSFADLFRTPNLRKHTVILMYLWFSCAVLYQGLIMHVGATGANLYLDFFYSSLVEFPAAFIILVTIDRIGRIYPIAASNLVTGAACLLMIFIPHELHWLNVTLACLGRMGATIVLQMVCLVNAELYPTFIRNLGMMVCSALCDLGGIFTPFMVFRLMEVWQALPLILFGVLGLTAGAMTLLLPETKGVALPETIEEAENLGRRKSKAKENTIYLQVQTGKSSST
Km [5]: 346 µM
